Laboratory results taken from patent US12421232B2, “Kinase inhibitor compounds and compositions and methods of use” (ICAHN SCHOOL OF MEDICINE AT MOUNT SINAI, priority 2018, dated 2025).
Like-named read-outs stand apart in the source and are kept apart here.

Key:
Assay in all cases: KINOMEscan Assay (DiscoverX)
Assay type in all cases: binding
Settings in all cases: read-out: % DMSO Ctrl
CAMK2B = molecular target: T1, CAMK2B (Homo sapiens, UniProt Q13554)
T1 construct: purchased DiscoverX

FLT3(K663Q) = molecular target: T2, FLT3(K663Q) (Homo sapiens, UniProt P36888, K663Q)
T2 construct: purchased DiscoverX
T2 sequence (P36888 27-993 K663Q): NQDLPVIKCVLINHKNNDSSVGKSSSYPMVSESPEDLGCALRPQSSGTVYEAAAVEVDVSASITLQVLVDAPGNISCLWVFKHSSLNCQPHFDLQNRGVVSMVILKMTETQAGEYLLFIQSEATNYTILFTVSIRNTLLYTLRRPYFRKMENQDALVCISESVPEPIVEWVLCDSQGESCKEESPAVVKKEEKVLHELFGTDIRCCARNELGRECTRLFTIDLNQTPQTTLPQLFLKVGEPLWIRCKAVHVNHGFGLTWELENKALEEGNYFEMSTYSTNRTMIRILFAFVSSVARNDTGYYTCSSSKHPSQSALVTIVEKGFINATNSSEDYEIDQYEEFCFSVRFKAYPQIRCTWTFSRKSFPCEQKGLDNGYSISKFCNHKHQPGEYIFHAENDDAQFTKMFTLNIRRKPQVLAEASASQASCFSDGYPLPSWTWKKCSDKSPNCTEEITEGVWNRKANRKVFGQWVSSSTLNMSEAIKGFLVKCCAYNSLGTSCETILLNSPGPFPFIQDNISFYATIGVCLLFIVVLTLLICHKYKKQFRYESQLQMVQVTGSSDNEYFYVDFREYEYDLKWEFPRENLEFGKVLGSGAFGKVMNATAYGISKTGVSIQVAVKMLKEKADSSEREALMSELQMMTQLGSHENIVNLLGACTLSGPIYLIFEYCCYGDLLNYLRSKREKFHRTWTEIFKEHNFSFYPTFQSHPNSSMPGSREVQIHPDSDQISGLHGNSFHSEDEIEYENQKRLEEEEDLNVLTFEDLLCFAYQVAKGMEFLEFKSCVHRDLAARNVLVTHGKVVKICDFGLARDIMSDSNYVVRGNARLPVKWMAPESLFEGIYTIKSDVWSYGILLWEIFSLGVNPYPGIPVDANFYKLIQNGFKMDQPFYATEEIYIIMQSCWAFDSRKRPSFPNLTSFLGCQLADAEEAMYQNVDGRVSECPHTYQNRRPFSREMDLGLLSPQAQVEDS

KIT = molecular target: T3, KIT (Homo sapiens, UniProt P10721)
T3 construct: purchased DiscoverX

KIT(V559D) = molecular target: T4, KIT(V559D) (Homo sapiens, UniProt P10721, V559D)
T4 construct: purchased DiscoverX

MEK2 = molecular target: T5, MEK2 (Homo sapiens, UniProt P36507)
T5 construct: purchased DiscoverX

PIK3CA(I800L) = molecular target: T6, PIK3CA(I800L) (Homo sapiens, UniProt P42336, I800L)
T6 construct: purchased DiscoverX

PIM3 = molecular target: T7, PIM3 (Homo sapiens, UniProt Q86V86)
T7 construct: purchased DiscoverX

[1] = molecular target: T8, RPS6KA4(Kin.Dom.2-C-terminal) (Homo sapiens, UniProt O75676)
T8 construct: Kin.Dom.2; purchased DiscoverX

[2] = molecular target: T9, TYK2(JH1domain-catalytic) (Homo sapiens, UniProt P29597)
T9 construct: JH1domain; purchased DiscoverX
T9 sequence (P29597 897-1176 limits assumed): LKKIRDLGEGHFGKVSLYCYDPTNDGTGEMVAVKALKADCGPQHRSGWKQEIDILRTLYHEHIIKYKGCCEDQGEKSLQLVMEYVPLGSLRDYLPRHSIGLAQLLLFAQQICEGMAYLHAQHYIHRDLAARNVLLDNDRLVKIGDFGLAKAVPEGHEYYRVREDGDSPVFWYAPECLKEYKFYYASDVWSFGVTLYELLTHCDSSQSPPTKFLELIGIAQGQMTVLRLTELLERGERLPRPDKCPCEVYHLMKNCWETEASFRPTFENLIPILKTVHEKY

CSNK1A1 = molecular target: T10, CSNK1A1 (Homo sapiens, UniProt P48729)
T10 construct: purchased DiscoverX

CSNK1G2 = molecular target: T11, CSNK1G2 (Homo sapiens, UniProt P78368)
T11 construct: purchased DiscoverX

DYRK2 = molecular target: T12, DYRK2 (Homo sapiens, UniProt Q92630)
T12 construct: purchased DiscoverX
T12 sequence (Q92630 1-601): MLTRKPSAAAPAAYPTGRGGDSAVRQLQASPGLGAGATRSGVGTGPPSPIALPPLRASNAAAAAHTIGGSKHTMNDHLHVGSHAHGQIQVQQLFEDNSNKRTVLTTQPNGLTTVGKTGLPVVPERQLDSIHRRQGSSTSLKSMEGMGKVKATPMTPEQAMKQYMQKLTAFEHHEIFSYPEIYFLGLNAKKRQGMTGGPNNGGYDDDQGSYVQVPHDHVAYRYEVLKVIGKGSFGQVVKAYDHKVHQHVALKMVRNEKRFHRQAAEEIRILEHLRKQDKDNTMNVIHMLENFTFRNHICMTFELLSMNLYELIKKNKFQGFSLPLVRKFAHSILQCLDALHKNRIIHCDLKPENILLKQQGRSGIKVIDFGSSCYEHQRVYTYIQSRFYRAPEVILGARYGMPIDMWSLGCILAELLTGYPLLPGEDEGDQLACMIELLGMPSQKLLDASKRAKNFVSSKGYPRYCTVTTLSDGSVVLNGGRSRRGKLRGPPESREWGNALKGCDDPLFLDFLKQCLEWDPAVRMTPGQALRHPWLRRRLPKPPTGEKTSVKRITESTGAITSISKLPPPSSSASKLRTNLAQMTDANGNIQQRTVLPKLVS

PIK4CB = molecular target: T13, PIK4CB (Homo sapiens, UniProt Q9UBF8)
T13 construct: purchased DiscoverX

PIM2 = molecular target: T14, PIM2 (Homo sapiens, UniProt Q9P1W9)
T14 construct: purchased DiscoverX

T13 sequence (Q9UBF8 whole entry): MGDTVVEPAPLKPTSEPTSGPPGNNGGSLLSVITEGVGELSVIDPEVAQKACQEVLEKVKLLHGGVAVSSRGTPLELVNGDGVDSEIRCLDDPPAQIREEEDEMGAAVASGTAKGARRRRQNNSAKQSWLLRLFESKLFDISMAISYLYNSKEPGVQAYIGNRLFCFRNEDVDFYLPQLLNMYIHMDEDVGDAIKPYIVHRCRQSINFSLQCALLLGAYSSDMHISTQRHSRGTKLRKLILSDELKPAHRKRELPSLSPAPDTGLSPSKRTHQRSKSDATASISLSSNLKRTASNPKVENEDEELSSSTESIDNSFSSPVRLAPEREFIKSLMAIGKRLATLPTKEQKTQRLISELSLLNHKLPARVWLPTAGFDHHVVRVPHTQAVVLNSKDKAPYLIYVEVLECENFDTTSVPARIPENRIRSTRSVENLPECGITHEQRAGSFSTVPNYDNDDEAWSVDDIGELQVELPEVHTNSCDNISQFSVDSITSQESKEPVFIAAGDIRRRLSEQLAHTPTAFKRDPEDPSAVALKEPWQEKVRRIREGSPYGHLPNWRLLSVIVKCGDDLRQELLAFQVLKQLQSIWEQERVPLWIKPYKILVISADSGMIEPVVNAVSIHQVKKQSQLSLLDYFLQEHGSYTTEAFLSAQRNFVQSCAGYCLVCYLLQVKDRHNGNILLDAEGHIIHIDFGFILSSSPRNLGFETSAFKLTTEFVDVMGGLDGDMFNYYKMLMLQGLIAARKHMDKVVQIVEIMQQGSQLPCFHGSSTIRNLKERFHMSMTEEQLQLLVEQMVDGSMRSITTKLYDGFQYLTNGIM
T10 sequence (P48729 whole entry): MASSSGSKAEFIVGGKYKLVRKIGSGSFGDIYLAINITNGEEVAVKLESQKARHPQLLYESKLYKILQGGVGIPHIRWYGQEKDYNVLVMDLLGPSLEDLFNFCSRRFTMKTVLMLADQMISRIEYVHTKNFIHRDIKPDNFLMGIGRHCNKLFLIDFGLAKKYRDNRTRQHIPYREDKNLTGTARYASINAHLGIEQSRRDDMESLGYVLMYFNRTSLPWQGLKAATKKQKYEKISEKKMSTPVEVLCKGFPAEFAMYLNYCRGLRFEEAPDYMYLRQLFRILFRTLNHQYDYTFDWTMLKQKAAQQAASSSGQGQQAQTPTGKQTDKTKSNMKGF
T11 sequence (P78368 whole entry): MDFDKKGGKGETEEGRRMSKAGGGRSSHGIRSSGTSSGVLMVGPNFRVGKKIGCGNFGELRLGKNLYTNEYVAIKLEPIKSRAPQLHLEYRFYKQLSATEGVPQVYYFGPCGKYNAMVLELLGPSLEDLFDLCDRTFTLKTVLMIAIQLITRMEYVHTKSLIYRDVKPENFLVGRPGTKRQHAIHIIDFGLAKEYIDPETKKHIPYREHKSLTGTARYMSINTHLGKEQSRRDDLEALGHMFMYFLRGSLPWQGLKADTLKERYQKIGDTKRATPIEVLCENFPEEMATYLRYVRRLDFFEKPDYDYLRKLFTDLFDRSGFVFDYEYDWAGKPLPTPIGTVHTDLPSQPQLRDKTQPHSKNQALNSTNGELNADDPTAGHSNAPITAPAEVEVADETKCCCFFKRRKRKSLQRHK
T1 sequence (Q13554 whole entry): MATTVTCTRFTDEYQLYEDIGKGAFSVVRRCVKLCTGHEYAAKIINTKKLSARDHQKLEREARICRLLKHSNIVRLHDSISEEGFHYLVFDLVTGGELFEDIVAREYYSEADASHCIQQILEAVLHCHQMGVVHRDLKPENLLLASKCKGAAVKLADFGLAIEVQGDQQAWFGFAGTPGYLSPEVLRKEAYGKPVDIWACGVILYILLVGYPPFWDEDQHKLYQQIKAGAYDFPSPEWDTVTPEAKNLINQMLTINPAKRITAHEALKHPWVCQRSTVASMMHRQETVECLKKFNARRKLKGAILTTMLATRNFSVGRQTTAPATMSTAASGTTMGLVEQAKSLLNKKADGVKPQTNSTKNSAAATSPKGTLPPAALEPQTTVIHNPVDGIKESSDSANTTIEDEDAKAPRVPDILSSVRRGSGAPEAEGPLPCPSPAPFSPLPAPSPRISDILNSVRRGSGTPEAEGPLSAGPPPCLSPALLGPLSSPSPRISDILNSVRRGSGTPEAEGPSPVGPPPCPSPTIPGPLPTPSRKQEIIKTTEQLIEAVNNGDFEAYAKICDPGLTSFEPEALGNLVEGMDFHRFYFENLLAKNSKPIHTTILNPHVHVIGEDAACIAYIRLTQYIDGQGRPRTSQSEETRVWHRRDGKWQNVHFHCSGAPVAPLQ
T4 sequence (P10721 26-976 V559D): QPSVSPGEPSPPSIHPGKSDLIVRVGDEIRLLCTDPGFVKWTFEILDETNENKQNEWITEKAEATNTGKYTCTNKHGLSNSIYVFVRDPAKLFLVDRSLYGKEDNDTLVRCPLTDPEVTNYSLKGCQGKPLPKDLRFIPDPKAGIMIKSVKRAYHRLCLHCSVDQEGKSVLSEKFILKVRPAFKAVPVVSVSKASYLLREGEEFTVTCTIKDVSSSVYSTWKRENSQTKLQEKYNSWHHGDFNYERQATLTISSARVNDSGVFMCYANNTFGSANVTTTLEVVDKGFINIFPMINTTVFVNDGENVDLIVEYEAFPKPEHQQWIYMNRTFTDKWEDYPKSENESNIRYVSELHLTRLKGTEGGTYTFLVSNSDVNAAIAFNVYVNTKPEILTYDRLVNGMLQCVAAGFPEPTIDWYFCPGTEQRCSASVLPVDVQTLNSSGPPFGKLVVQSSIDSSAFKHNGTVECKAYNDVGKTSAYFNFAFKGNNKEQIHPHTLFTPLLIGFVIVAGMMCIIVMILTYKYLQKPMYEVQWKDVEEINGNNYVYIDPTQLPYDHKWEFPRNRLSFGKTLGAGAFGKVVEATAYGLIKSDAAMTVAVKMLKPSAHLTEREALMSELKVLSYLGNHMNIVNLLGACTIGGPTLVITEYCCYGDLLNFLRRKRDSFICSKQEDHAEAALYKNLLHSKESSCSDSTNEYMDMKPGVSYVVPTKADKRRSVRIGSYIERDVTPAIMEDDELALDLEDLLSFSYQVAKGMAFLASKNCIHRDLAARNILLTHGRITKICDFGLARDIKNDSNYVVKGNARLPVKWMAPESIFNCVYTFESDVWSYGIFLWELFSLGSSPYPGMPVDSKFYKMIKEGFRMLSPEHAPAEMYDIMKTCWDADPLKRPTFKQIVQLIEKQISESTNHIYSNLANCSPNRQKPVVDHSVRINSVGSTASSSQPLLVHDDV
T5 sequence (P36507 whole entry): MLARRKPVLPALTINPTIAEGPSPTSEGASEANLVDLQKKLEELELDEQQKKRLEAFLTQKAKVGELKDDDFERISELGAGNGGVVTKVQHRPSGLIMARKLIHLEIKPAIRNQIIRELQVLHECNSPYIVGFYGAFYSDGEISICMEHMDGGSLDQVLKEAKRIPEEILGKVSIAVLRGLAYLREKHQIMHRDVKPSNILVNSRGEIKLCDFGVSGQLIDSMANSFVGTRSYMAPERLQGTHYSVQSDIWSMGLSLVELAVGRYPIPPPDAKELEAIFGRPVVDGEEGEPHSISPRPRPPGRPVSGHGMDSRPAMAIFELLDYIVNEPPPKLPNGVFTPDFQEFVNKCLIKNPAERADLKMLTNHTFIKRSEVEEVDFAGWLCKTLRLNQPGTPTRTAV
T6 sequence (P42336 whole entry I800L): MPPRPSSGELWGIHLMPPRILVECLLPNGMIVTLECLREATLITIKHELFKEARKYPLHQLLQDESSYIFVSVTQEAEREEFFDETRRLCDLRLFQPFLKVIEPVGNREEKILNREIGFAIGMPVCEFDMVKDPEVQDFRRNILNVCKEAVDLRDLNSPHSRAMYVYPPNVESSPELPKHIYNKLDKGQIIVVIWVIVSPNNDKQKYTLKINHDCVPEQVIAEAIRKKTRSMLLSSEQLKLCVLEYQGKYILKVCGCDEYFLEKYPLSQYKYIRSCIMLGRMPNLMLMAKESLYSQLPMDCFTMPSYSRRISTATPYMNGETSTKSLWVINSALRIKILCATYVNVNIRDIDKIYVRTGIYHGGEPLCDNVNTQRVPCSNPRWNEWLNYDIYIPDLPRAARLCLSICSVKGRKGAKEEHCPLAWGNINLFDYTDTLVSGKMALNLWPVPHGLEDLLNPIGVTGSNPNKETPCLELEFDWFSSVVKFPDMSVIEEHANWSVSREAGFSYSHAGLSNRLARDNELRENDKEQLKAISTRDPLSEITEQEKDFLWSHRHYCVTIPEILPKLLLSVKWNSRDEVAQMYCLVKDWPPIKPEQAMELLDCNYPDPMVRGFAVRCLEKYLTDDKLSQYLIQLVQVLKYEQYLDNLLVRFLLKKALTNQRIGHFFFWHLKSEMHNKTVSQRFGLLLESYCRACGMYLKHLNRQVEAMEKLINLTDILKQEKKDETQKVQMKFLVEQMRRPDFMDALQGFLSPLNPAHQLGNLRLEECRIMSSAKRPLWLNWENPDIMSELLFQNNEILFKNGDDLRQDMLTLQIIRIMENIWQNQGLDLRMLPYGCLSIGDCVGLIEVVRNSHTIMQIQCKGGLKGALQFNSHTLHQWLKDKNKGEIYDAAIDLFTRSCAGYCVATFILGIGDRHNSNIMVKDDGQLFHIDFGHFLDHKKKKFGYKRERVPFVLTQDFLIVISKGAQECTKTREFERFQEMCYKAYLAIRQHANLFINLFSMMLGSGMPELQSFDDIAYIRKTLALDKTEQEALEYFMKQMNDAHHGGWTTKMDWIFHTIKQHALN
T3 sequence (P10721 26-976): as the sequence (P10721 26-976 V559D) above, with D534V counted along it

SMILES | remaining binding at 10 µM (PIM3; PIM3, 10 μM) [%] | remaining binding at 10 µM (CAMK2B) [%] | remaining binding at 10 µM (CSNK1A1) [%] | remaining binding at 10 µM (CSNK1G2) [%] | remaining binding at 10 µM (DYRK2) [%] | remaining binding at 10 µM (FLT3(K663Q)) [%] | remaining binding at 10 µM (KIT) [%] | remaining binding at 10 µM (KIT(V559D)) [%] | remaining binding at 10 µM (MEK2) [%] | remaining binding at 10 µM (PIK3CA(I800L)) [%] | remaining binding at 10 µM (PIK4CB) [%] | remaining binding at 10 µM (PIM2) [%] | remaining binding at 10 µM (PIM3) [%] | remaining binding at 10 µM [1] [%] | remaining binding at 10 µM [2] [%] | further results
COc1ccc2c(c1)[nH]c1c(C)nc(CO)cc12 [Compound 2-8, (1-Methyl-7-methoxy-9H-pyrido[3,4-b]indol-3-yl)methanol] | 15 | – | – | – | – | – | – | – | – | – | – | – | – | – | – | remaining binding at 10 µM (CAMK2B; CAMK2B, 10 μM): 42%; remaining binding at 10 µM (FLT3(K663Q); FLT3(K663Q) mutant, 10 μM): 100%; remaining binding at 10 µM (KIT; KIT, 10 μM): 98%; remaining binding at 10 µM (KIT(V559D); KIT(V559D) mutant, 10 μM): 82%; remaining binding at 10 µM (MEK2; MEK2, 10 μM): 100%; remaining binding at 10 µM (PIK3CA(I800L); PIK3CA(I800L) mutant, 10 μM): 63%; remaining binding at 10 µM ([1]; RPS6KA4(Kin.Dom.2-C-terminal), 10 μM): 1%; remaining binding at 10 µM ([2]; TYK2(JH1domain-catalytic), 10 μM): 64%
COc1ccc2c3ccnc(C)c3n(CCCc3noc(N)n3)c2c1 [Compound 20-13, 3-(3-(7-Methoxy-1-methyl-β-carbolin-9-yl)propyl)-5-amino-1,2,4-oxadiazole] | – | 69 | 33 | 91 | 9.1 | 98 | 100 | 100 | 0 | 10 | 9.9 | 38 | 39 | 85 | 17 | –
C#CCn1c2cc(OC)ccc2c2ccnc(C)c21 [Compound 20-23a, 3-(7-Methoxy-1-methyl-β-carbolin-9-yl)-propan-1-yne] | 32 | 3 | – | – | 5.2 | 93 | 83 | 90 | 96 | 73 | – | – | – | 55 | 91 | remaining binding at 10 µM (CSNK1A1; CSNK1A1, 10 μM): 13%; remaining binding at 10 µM (CSNK1G2; CSNK1G2, 10 μM): 56%; remaining binding at 10 µM (PIK4CB; PIK4CB, 10 μM): 0%; remaining binding at 10 µM (PIM2; PIM2, 10 μM): 19%
COc1ccc2c(c1)[nH]c1c(C)nccc12 [Harmine, reference compound] | – | – | 5 | 19 | 3.2 | – | – | – | – | – | 12 | 39 | 43 | – | – | –
